pIC50, pKd, pKi: −log10 of the molar value. Starred links: 1 amine or outer side, 2 acyl side, 3 side chain; linkers in the order of their positions; H or OH if unused. Positions of bridges follow the written chain, without caps; N, C: chain ends. Non-standard residues stand in square brackets, D forms with d. Residues, ends and D or L forms follow the SMILES beside them. X2 = O=C([C@@H](CC[*:3])N[*:1])[*:2]; S5 = C=CCCC[C@](C)(N)C(=O)O
Legend:
[1] = biological target: T1, Estrogen receptor (Homo sapiens, UniProt P03372); experiment: Antagonist activity at full length recombinant human ERalpha expressed in baculovirus expression system assessed as inhibition of estradiol-induced Euphorium-labelled LTERHKILHRLLQEGSPSD peptide recruitment after 1.5 hrs by time-resolved fluorescence assay
T1 sequence (P03372 whole entry): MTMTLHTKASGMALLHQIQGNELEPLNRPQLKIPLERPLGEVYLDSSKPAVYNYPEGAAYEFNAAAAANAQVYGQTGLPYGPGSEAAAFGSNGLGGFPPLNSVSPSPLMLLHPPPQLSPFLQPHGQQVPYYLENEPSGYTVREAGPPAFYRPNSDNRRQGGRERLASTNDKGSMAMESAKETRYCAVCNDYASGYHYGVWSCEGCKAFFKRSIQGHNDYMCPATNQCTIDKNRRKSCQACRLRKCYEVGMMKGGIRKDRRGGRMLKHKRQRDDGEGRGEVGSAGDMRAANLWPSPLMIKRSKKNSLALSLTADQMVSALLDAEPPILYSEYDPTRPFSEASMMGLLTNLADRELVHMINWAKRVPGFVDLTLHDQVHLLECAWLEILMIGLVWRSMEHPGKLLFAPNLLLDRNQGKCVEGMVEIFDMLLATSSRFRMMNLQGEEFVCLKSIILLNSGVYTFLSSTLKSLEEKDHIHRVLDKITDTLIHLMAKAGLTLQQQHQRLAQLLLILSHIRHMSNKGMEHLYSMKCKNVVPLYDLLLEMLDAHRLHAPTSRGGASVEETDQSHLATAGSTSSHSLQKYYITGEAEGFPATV

[2] = biological target: Estrogen receptor beta (Homo sapiens, UniProt Q92731); experiment: Antagonist activity at full length recombinant human ERbeta expressed in baculovirus expression system assessed as inhibition of estradiol-induced Euphorium-labelled QAQQKSLLQQLLTE peptide recruitment after 1.5 hrs by time-resolved fluorescence assay
Chain of Estrogen receptor beta (Homo sapiens, UniProt Q92731) (Q92731 whole entry, the tested form may be a part): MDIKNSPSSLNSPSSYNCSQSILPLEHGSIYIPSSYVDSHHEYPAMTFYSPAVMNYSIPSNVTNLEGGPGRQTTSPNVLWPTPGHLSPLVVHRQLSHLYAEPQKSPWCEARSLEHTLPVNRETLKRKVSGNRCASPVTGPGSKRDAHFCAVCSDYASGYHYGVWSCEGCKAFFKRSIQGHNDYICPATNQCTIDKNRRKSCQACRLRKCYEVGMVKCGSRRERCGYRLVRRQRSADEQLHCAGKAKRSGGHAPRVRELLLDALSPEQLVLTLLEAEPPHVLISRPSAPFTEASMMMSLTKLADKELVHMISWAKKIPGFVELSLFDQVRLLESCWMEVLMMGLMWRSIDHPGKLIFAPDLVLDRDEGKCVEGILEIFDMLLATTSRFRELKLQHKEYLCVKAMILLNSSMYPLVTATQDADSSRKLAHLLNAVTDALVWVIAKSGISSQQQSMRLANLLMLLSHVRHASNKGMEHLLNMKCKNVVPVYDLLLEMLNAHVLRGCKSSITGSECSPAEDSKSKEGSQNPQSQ

[3] = biological target: T1, Estrogen receptor; experiment: Binding affinity to recombinant human ERalpha LBD (301 to 553 residues) expressed in Escherichia coli BL21(DE3) using FITC-labelled compound after 1 hr by fluorescence polarization method
[4] = biological target: T2, Estrogen receptor (Homo sapiens) (UniProt P03372); experiment: (§1) Binding affinity to recombinant human ERalpha LBD (301 to 553 residues) expressed in Escherichia coli BL21(DE3) by surface plasmon resonance method
T2 sequence (whole entry): T1 sequence (P03372 whole entry)

[5] = biological target: T1, Estrogen receptor; experiment: as §1
[6] = tested on: Estrogen receptor beta (Homo sapiens), Q92731 [C334S,C369S,C481S]; experiment: (§2) Binding affinity to recombinant human ERbeta LBD (259 to 498 residues) C334S/C369S/C481S triple mutant expressed in Escherichia coli BL21(DE3) by surface plasmon resonance method
Chain of Estrogen receptor beta (Homo sapiens), Q92731 [C334S,C369S,C481S] (Q92731 whole entry C334S/C369S/C481S, the tested form may be a part): as the sequence (Q92731 whole entry, the tested form may be a part) above, with C334S, C369S, C481S counted along it

[7] = biological target: Estrogen receptor beta (Homo sapiens, UniProt Q92731, C334S/C369S/C481S); experiment: as §2
Chain of Estrogen receptor beta (Homo sapiens, UniProt Q92731, C334S/C369S/C481S) (Q92731 whole entry C334S/C369S/C481S, the tested form may be a part): as the sequence (Q92731 whole entry, the tested form may be a part) above, with C334S, C369S, C481S counted along it

[8] = biological target: T1, Estrogen receptor; experiment: Displacement of 5-iodoacetamidofluorescein-labelled SRC3 from C417-biotin labelled ERalpha (unknown origin) (304 to 554 residues) after 45 mins by TR-FRET assay

SMILES | pKi [1] | Kdiss [4] [s⁻¹] | pKd [5] | Kdiss [6] [s⁻¹] | pKd [7] | other results
CC[C@H](C)[C@@H]1NC(=O)C[C@H](NC(=O)[C@@H](N)CCCNC(=N)N)C(=O)NC[C@@H](C(=O)N[C@@H](CCCNC(=N)N)C(=O)N[C@@H](CC(C)C)C(=O)N[C@@H](CC(C)C)C(=O)N[C@@H](CCC(N)=O)C(N)=O)NC(=O)[C@H](CC(C)C)NC1=O | – | – | – | – | – | pKd [3]: 7.07
CC[C@H](C)[C@H](NC(=O)[C@H](Cc1ccc(O)cc1)NC(=O)[C@@H]1C[C@H](O)CN1C(=O)[C@H](C)NC(=O)[C@H](CC(C)C)NC(=O)CCCCCNC(=O)[C@H](CCC(N)=O)NC(=O)[C@H](CC(C)C)NC(=O)[C@H](CC(C)C)NC(=O)[C@H](CCCNC(=N)N)NC(=O)[C@@H]1CNC(=O)[C@@H](NC(=O)[C@@H](N)CCCNC(=N)N)CC(=O)N[C@@H]([C@@H](C)CC)C(=O)N[C@@H](CC(C)C)C(=O)N1)C(N)=O | – | – | – | – | – | pKd [3]: 7.52
CC[C@H](C)[C@H](NC(=O)[C@H](CCCCN)NC(=O)[C@H](Cc1cnc[nH]1)NC(=O)[C@H](CCCCN)NC(=O)[C@H](CCC(=O)O)NC(C)=O)C(=O)N[C@@H](CC(C)C)C(=O)N[C@@]1(C)CCC/C=C\CCC[C@@](C)(C(=O)N[C@@H](CC(=O)O)C(=O)N[C@@H](CO)C(N)=O)NC(=O)[C@H](CC(C)C)NC(=O)[C@H](CC(C)C)NC(=O)[C@H](CCCNC(=N)N)NC1=O (Ac-EKHKIL[S5]RLL[S5]DS-NH2; staple (Z) 7-11) | – | 0.129 | 7.12 | 0.155 | 6.81 | –
CC(=O)N[C@@H](Cc1cnc[nH]1)C(=O)N[C@@H](CCCCN)C(=O)N[C@@]1(C)CCC/C=C\CCC[C@@](C)(C(=O)N[C@@H](CC(C)C)C(=O)N[C@@H](CCC(N)=O)C(=O)N[C@@H](CC(=O)O)C(=O)N[C@@H](CO)C(N)=O)NC(=O)[C@H](CCC(N)=O)NC(=O)[C@H](Cc2cnc[nH]2)NC(=O)[C@H](CC(C)C)NC1=O (Ac-HK[S5]LHQ[S5]LQDS-NH2; staple (Z) 3-7) | – | 0.193 | 6.45 | 0.339 | 6.20 | pIC50 [8]: 6.12
CC[C@H](C)[C@@H]1NC(=O)[C@@](C)(NC(=O)[C@H](Cc2cnc[nH]2)NC(C)=O)CCC/C=C\CCC[C@@](C)(C(=O)N[C@@H](CC(C)C)C(=O)N[C@@H](CC(C)C)C(=O)N[C@@H](CCC(N)=O)C(=O)N[C@@H](CC(=O)O)C(=O)N[C@@H](CO)C(N)=O)NC(=O)[C@H](Cc2cnc[nH]2)NC(=O)[C@H](CC(C)C)NC1=O (Ac-H[S5]ILH[S5]LLQDS-NH2; staple (Z) 2-6) | – | 0.256 | 6.17 | 0.509 | 5.70 | –

The next lines start with results.

pKi [1] | Kdiss [4] [s⁻¹] | pKd [5] | Kdiss [6] [s⁻¹] | pKd [7] | SMILES | other results
10.15 | – | – | – | – | CC[C@H](C)[C@@H]1NC(=O)[C@H](NC(=O)[C@@H](N)CCCNC(=N)N)CSSC[C@H](C(=O)N[C@@H](CCCNC(=N)N)C(=O)N[C@@H](CC(C)(C)C)C(=O)N[C@@H](CC(C)C)C(=O)N[C@@H](CCC(N)=O)C(N)=O)NC(=O)[C@H](CC(C)C)NC1=O | pKi [2]: 8.92
7.96 | – | – | – | – | CC[C@H](C)[C@@H]1NC(=O)[C@H](NC(=O)[C@@H](N)CCCNC(=N)N)CSSC[C@H](C(=O)N[C@@H](CCCNC(=N)N)C(=O)N[C@@H](CC(C)C)C(=O)N[C@@H](CC(C)C)C(=O)N[C@@H](CCC(N)=O)C(N)=O)NC(=O)[C@H](CC(C)C)NC1=O | –
7.60 | – | – | – | – | CC[C@H](C)[C@@H]1NC(=O)[C@H](NC(=O)[C@@H](N)CCCCN)CSSC[C@H](C(=O)N[C@@H](CCCNC(=N)N)C(=O)N[C@@H](CC(C)C)C(=O)N[C@@H](CC(C)C)C(=O)N[C@@H](CCC(N)=O)C(N)=O)NC(=O)[C@H](CC(C)C)NC1=O (H-K[dC]IL[dC]RLLQ-NH2; disulfide 2-5) | –
8.16 | – | – | – | – | CC[C@H](C)[C@@H]1NC(=O)[C@H](NC(=O)[C@@H](N)CCCNC(=N)N)CCSC[C@@H](C(=O)N[C@@H](CCCNC(=N)N)C(=O)N[C@@H](CC(C)C)C(=O)N[C@@H](CC(C)C)C(=O)N[C@@H](CCC(N)=O)C(N)=O)NC(=O)[C@H](CC(C)C)NC1=O (H-R[X2]ILCRLLQ-NH2; thioether 2-5) | pKi [2]: 7.19

Source: ChEMBL document CHEMBL4229451, “Recent advances in peptidomimetics antagonists targeting estrogen receptor α-coactivator interaction in cancer therapy” (Bioorg Med Chem Lett, 2018)
